Reference: ChEMBL document CHEMBL6078640, “Trivalent oleanolic acid-glucose conjugates: Synthesis and efficacy against Influenza A virus” (Eur J Med Chem, 2024)
Activity calls are given as the source filed them. The rule behind the calls is not given here.

What was measured:
Influenza A virus [1] = assay: Antiviral activity against influenza A virus A/WSN/33 (H1N1) in MDCK cells assessed as reduction in M mRNA level preincubated with cells at 24 hrs followed by compound addition and measured at 0 to 2 hrs post infection by RT-qPCR analysis; type: functional, organism-based; conditions: time 0-2 hrs
[2] = Toxicity in female BALB/c kunming mouse infected with Influenza A virus A/WSN/33(H1N1) assessed as reduction in kidney injury at 6.25 to 12.5 mg/kg/day, administered intranasally once per day for 7 days starting from 24 hrs post-viral infection by H and E staining based analysis; type: organism-based; conditions: in vivo, inhaled_or_intranasal, 168 h, dose 6.25-12.5 mg/kg/day, time 7 day
Influenza A virus [3] = assay: Antiviral activity against Influenza A virus A/WSN/33(H1N1) infected in female BALB/c kunming mouse assessed as reduction in severe pneumonia at 12.5 mg/kg/day, administered intranasally once per day for 7 days starting from 24 hrs post-viral infection and measured daily; type: functional, organism-based; conditions: time 7.0 day
Influenza A virus [4] = assay: Antiviral activity against Influenza A virus A/WSN/33(H1N1) infected in female BALB/c kunming mouse assessed as protection of mouse at 0.25 mg/kg, administered intranasally once per day for 7 days starting from 24 hrs post-viral infection and measured daily; type: functional, organism-based; conditions: time 7.0 day
Influenza A virus [5] = assay: Antiviral activity against Influenza A virus H5N1 (A/Indonesia/5/2005 (IBCDC-RG2)); type: functional, organism-based
MDCK [6] = assay: Inhibition of Hemagglutinin in Influenza A virus H1N1 assessed as inhibition of virus-induced aggregation of chicken erythrocytes pretreated with virus followed by chicken RBC addition and measured after 30 mins by Hemagglutinin inhibition assay; type: cell-based; conditions: dose 0-1.94 µM
Influenza A virus [7] = assay: Antiviral activity against influenza A virus A/WSN/33 (H1N1) in MDCK cells assessed as reduction in M2 expression preincubated with cells at 24 hrs followed by compound addition and measured at 0 to 2 hrs post infection by time of addition assay; type: functional, organism-based; conditions: time 0-2 hrs
Influenza A virus [8] = assay: Antiviral activity against influenza A virus A/WSN/33(H1N1) infected in MDCK cells assessed as inhibition of viral-induced cytopathic effect pretreated with cells followed by viral infection and measured after 40 hrs by fluorescence based microplate reader analysis; type: functional, organism-based
Influenza A virus [9] = assay: Antiviral activity against influenza A virus A/WSN/33 (H1N1) in MDCK cells assessed as reduction in NP mRNA level preincubated with cells at 24 hrs followed by compound addition and measured at 0 to 2 hrs post infection by RT-qPCR analysis; type: functional, organism-based; conditions: time 0-2 hrs
Influenza A virus [10] = assay: Antiviral activity against Influenza A virus H1N1 infected in MDCK cells assessed as inhibition of viral growth at 100 uM relative to control; type: functional
Influenza A virus [11] = assay: Antiviral activity against Influenza A virus H1N1 infected in MDCK cells assessed as reduction in cytopathic effect at 100 uM pretreated with cells followed by viral infection and measured after 40 hrs by fluorescence based microplate reader analysis; type: functional, organism-based
Influenza A virus [12] = assay: Antiviral activity against Influenza A virus A/WSN/33(H1N1) infected in female BALB/c kunming mouse assessed as delayed the median time of animal death at 0.125 mg/kg, administered intranasally once per day for 7 days starting from 24 hrs post-viral infection and measured daily; type: functional, organism-based; conditions: time 7.0 day
Influenza A virus [13] = assay: Antiviral activity against influenza A virus A/WSN/33 (H1N1) in MDCK cells assessed as reduction in NP expression preincubated with cells at 24 hrs followed by compound addition and measured at 0 to 10 hrs post infection by time of addition assay; type: functional, organism-based; conditions: time 0-10 hrs
[14] = Selectivity index, ratio of CC50 for dog MDCK cells to IC50 for influenza A virus A/WSN/33(H1N1) infected in MDCK cells; type: toxicity, cell-based; conditions: read-out: Selectivity Index
Influenza A virus [15] = assay: Antiviral activity against Influenza A virus A/WSN/33(H1N1) infected in female BALB/c kunming mouse assessed as improvement in body weight administered intranasally once per day for 7 days and measured daily; type: functional, organism-based; conditions: dose 6.25-12.5 mg/kg/day, time 7.0 day
Influenza A virus [16] = assay: Antiviral activity against Influenza A virus H1N1 (A/Guangdong maonan/6WL197/2020); type: functional, organism-based
Influenza A virus [17] = assay: Antiviral activity against Influenza A virus A/WSN/33(H1N1) infected in female BALB/c kunming mouse assessed as reduction in lung index at 6.25 mg/kg/day, administered intranasally once per day for 7 days starting from 24 hrs post-viral infection and measured daily; type: functional; conditions: time 7 day
Influenza A virus [18] = assay: Antiviral activity against influenza A virus A/WSN/33 (H1N1) in MDCK cells assessed as reduction in NP mRNA level preincubated with cells at 24 hrs followed by compound addition and measured at 0 to 10 hrs post infection by RT-qPCR analysis; type: functional, organism-based; conditions: time 0-10 hrs
[19] = Cytotoxicity against dog MDCK cells assessed as reduction in cell viability incubated for 40 hrs by celltiter-glo assay; type: toxicity, cell-based, Canis lupus familiaris
Influenza B virus = assay: Antiviral activity against Influenza B virus […] (B/Darwin/58/2019/Yamagata); type: functional, organism-based
Influenza A virus [20] = assay: Antiviral activity against Influenza A virus A/WSN/33(H1N1) infected in female BALB/c kunming mouse assessed as reduction in immune cell infiltration at 12.5 mg/kg/day, administered intranasally once per day for 7 days starting from 24 hrs post-viral infection and measured daily; type: functional, organism-based; conditions: time 7.0 day
Influenza A virus [21] = assay: Antiviral activity against influenza A virus A/WSN/33 (H1N1) in MDCK cells assessed as reduction in M mRNA level preincubated with cells at 24 hrs followed by compound addition and measured at 0 to 10 hrs post infection by RT-qPCR analysis; type: functional, organism-based; conditions: time 0-10 hrs
Influenza A virus [22] = assay: Antiviral activity against influenza A virus A/WSN/33 (H1N1) in MDCK cells assessed as reduction in M2 expression preincubated with cells at 24 hrs followed by compound addition and measured at 0 to 10 hrs post infection by time of addition assay; type: functional, organism-based; conditions: time 0-10 hrs
Influenza A virus [23] = assay: Antiviral activity against Influenza A virus A/WSN/33(H1N1) infected in female BALB/c kunming mouse assessed as reduction in lung index at 12.5 mg/kg/day, administered intranasally once per day for 7 days starting from 24 hrs post-viral infection and measured daily; type: functional; conditions: time 7 day
MDCK [24] = assay: Cytotoxicity against dog MDCK cells assessed as reduction in cell viability at 100 uM incubated for 40 hrs by celltiter-glo assay; type: toxicity, cell-based, Canis lupus familiaris
[25] = Toxicity in female BALB/c kunming mouse infected with Influenza A virus A/WSN/33(H1N1) assessed as reduction in liver injury at 6.25 to 12.5 mg/kg/day, administered intranasally once per day for 7 days starting from 24 hrs post-viral infection by H and E staining based analysis; type: organism-based; conditions: in vivo, inhaled_or_intranasal, 168 h, dose 6.25-12.5 mg/kg/day, time 7 day
Influenza A virus [26] = assay: Antiviral activity against influenza A virus A/WSN/33 (H1N1) in MDCK cells assessed as reduction in NP expression preincubated with cells at 24 hrs followed by compound addition and measured at 0 to 2 hrs post infection by time of addition assay; type: functional, organism-based; conditions: time 0-2 hrs

In the case of `CC1(C)CC[C@]2(C(=O)NCc3cn([C@@H]4O[C@H](CO)[C@@H](O)[C@H](O)[C@H]4O)nn3)CC[C@]3(C)C(=CC[C@@H]4[C@@]5(C)CC[C@H](OC(=O)NCc6cn(Cc7cc(Cn8cc(CNC(=O)O[C@H]9CC[C@]%10(C)[C@H]%11CC=C%12[C@@H]%13CC(C)(C)CC[C@]%13(C(=O)NCc%13cn([C@@H]%14O[C@H](CO)[C@@H](O)[C@H](O)[C@H]%14O)nn%13)CC[C@@]%12(C)[C@]%11(C)CC[C@H]%10C9(C)C)nn8)cc(Cn8cc(CNC(=O)O[C@H]9CC[C@]%10(C)[C@H]%11CC=C%12[C@@H]%13CC(C)(C)CC[C@]%13(C(=O)NCc%13cn([C@@H]%14O[C@H](CO)[C@@H](O)[C@H](O)[C@H]%14O)nn%13)CC[C@@]%12(C)[C@]%11(C)CC[C@H]%10C9(C)C)nn8)c7)nn6)C(C)(C)[C@@H]5CC[C@]43C)[C@@H]2C1`, the Activity (Influenza A virus [1]) is reported as “Active; Compound Exerts Antiviral Effect At Early Stage Of Infection”, the Activity [2] is reported as “Non-toxic” and the Activity (Influenza A virus [3]) is reported as “Active”. For the same compound, the Activity (Influenza A virus [4]) was “Active; Protection In 2 Out Of 4 Mouse Was Observed”, the Activity (Influenza A virus [5]) was “inactive” and the inhibition (MDCK [6]) was “Dose-dependent-effect”. For the same compound, the Activity (Influenza A virus [7]) was “Active; Compound Exerts Antiviral Effect At Early Stage Of Infection”, the IC50 (Influenza A virus [8]) was 0.47 µM and the Activity (Influenza A virus [9]) was “Active; Compound Exerts Antiviral Effect At Early Stage Of Infection”. The inhibition at 100 µM (Influenza A virus [10]) was greater than 75%, the Activity (Influenza A virus [11]) was “Active” and the Activity (Influenza A virus [12]) was “Active”. For the same compound, the Activity (Influenza A virus [13]) was “Active; Compound Exerts Antiviral Effect At Early Stage Of Infection”, the selectivity ratio [14] was greater than 213 and the Activity (Influenza A virus [15]) was “Dose-dependent-effect”. For the same compound, the IC50 (Influenza A virus [16]) was 5.24 µM, the Activity_index (Influenza A virus [17]) was 1.7 and the Activity (Influenza A virus [18]) was “Active; Compound Exerts Antiviral Effect At Early Stage Of Infection”. The CC50 at 40 h [19] was greater than 100 µM, the IC50 (Influenza B virus) was 2.39 µM and the Activity (Influenza A virus [20]) was “Active”. For the same compound, the Activity (Influenza A virus [21]) was “Active; Compound Exerts Antiviral Effect At Early Stage Of Infection”, the Activity (Influenza A virus [22]) was “Active; Compound Exerts Antiviral Effect At Early Stage Of Infection” and the Activity_index (Influenza A virus [23]) was 1.4. The Activity (MDCK [24]) was “Non-toxic”, the Activity [25] was “Non-toxic” and the Activity (Influenza A virus [26]) was “Active; Compound Exerts Antiviral Effect At Early Stage Of Infection”.
